Source: patent US11331364B2, “Use for JNK inhibitor molecules for treatment of various diseases” (Xigen Inflammation Ltd., priority 2014, dated 2022)
Square brackets hold non-standard residues; d marks the D form. Ends that are not written are not given here. Peptide text beside a SMILES is read from it.

Key:
Hela cells = assay: Internalization of transporter constructs, 24 hours, fluorescence of cell extracts; format: cell-based; conditions: FIG. 6; Y in position 2
Protocol: The transporter sequences analyzed correspond to SEQ ID NOs: 52-94 plus SEQ ID NOs: 45, 47, 46, 43 and 99 (FIG. 6A) and SEQ ID NOs: 100-147 (FIG. 6B). […] Hela cells were incubated 24 hours in 96 well plate with […] of the respective transporters. The cells were then washed twice with an acidic buffer (0.2M Glycin, 0.15M NaCl, pH 3.0) and twice with PBS. Cells were broken by the addition of RIPA lysis buffer. The relative amount of internalized peptide was then determined by reading the fluorescence intensity (Fusion Alpha plate reader; PerkinElmer) of each extract followed by background subtraction.
Hela cells were incubated 24 hours in 96 well plate with […] of the r3-L-TAT-derived transporters. The cells were then washed twice with an acidic buffer (0.2M Glycin, 0.15M NaCl, pH 3.0) and twice with PBS. Cells were broken by the addition of RIPA lysis buffer. The relative amount of internalized peptide was then determined by reading the fluorescence intensity (Fusion Alpha plate reader; PerkinElmer) of each extract followed by background subtraction

[1] = tested on: Imiquimod-induced psoriasis in mice; assay: Imiquimod-induced psoriasis, ear histopathology; format: in vivo, mouse; conditions: 10 mg/kg PO daily
Protocol: Female BALB/cAnNCrl mice (Charles River, age 8 to 10 weeks at study start) have been assigned to the following groups (treatment schedule):
In this experiment, two positive controls have been utilized. Firstly, Prednisolone at 10 mg/kg (vehicle: 1% Hydroxyethylcellulose, 0.25% Polysorbate 80, and 0.05% Antifoam in purified water) has been dosed daily and orally (group “Prednisolone”). Secondly, Dexamethasone has been administered at 0.5 mg/kg (vehicle: sterile 0.9% NaCl) on days 1, 4 and 7 via intravenous route.
On day 8, animals have been sacrificed and the tissue (ear) has been fixed in 10% neutral buffered formalin. For histopathology hematoxylin-and-eosin-stained sections (cross cut) have been prepared and microscopic evaluation on the collected tissues from all animals has been performed. Methods and end-points for histopathology were similarly described in the van der Fits (2009) paper in that inflammation, epidermal hyperplasia, epidermal hyperkeratosis (rather than parakeratosis) were observed and recorded for severity grade, whereby the respective methodology from Van der Fits et al. (The Journal of Immunology 2009, 182, P. 5836-5845) is hereby incorporated by reference. Histopathology grading scores were excluded for either skin or ear in animals with secondary inflammatory processes (full thickness epidermal ulcers). Scores were averaged by group and standard deviation and statistical significance were calculated. […] Formalin-fixed, paraffin embedded skin from the dorsal surface of the mouse (BALB/c) was stained with hematoxylin and eosin (H&E) stain and assessed microscopically. An important difference from the above reference and to describe in more detail the observations of the present study: Hyperkeratosis can be defined specifically as orthokeratotic (no retained nuclei) or parakeratotic (retained nuclei). Either can occur normally in various anatomical locations and depending on species; however, both conditions are well defined in particular disease states. The van der Fits paper describes their Imiquimod (IMQ)-induced psoriasis model as causing parakeratotic hyperkeratosis similar to what is seen in the human condition, and that was a defined end-point for this study. However, the Danilenko et al. (Veterinary Pathology 2008 45:563) has shown that many rodent psoriasis models have orthokeratotic hyperkeratosis. […] The more general term ‘hyperkeratosis’ was used for grading end-points and describe in the text what type was seen (primarily orthokeratotic).
Microscopic Histopathology end-points were graded as such: […]

[2] = Stability (half-life) in human serum, UPLC-MS; conditions: human serum (10 and 50% in PBS; FIG. 5: 50%), 0.1 mM peptide
Protocol: The experiment was performed as described by Tugyi et al. (Proc Natl Acad Sci USA, 2005, 413-418). The remaining intact peptide was quantified by UPLC-MS.

For “rYKRrQRRr ([dR]YKR[dR]QRR[dR]) [SEQ ID NO: 142]”, the transporter activity (Hela cells) was “highest transporter activity”.

For `C[C@]12C=CC(=O)C=C1CC[C@@H]1[C@@H]2[C@@H](O)C[C@@]2(C)[C@H]1CC[C@]2(O)C(=O)CO` [Prednisolone, reference compound], the “epidermal hyperkeratosis of the ear (average grades)” value [1] was “minimally decreased average grades”, the “inflammation of the ear (average grade) vs vehicle-IMQ” value [1] was “decreased inflammation of the ear” and the “inflammation of the ear (average grade) vs vehicle-IMQ” value ([1]; listed as prednisolone) was “significant differences from the vehicle control group”.

With `CC(C)C[C@H](NC(=O)[C@H](CC(N)=O)NC(=O)[C@H](CC(C)C)NC(=O)[C@@H](NC(=O)[C@@H](NC(=O)[C@@H]1CCCN1C(=O)[C@H](CCCNC(=N)N)NC(=O)[C@H](CCCCN)NC(=O)[C@@H]1CCCN1C(=O)[C@H](CCCNC(=N)N)NC(=O)[C@@H]1CCCN1C(=O)[C@@H]1CCCN1C(=O)[C@H](CCCNC(=N)N)NC(=O)[C@H](CCCNC(=N)N)NC(=O)[C@H](CCCNC(=N)N)NC(=O)[C@H](CCC(N)=O)NC(=O)[C@H](CCCNC(=N)N)NC(=O)[C@H](CCCNC(=N)N)NC(=O)[C@H](CCCCN)NC(=O)[C@H](CCCCN)NC(=O)[C@H](CCCNC(=N)N)NC(=O)CN)[C@@H](C)O)[C@@H](C)O)C(=O)N[C@@H](Cc1ccccc1)C(=O)N1CCC[C@H]1C(=O)N[C@@H](CCC(N)=O)C(=O)N[C@H](C(=O)N1CCC[C@H]1C(=O)N[C@@H](CCCNC(=N)N)C(=O)N[C@@H](CO)C(=O)N[C@@H](CCC(N)=O)C(=O)N[C@@H](CC(=O)O)C(N)=O)C(C)C` [SEQ ID NO: 196, reference compound] (H-GRKKRRQRRRPPRPKRPTTLNLFPQVPRSQD-NH2) the “time until totally degraded into amino acids residues” value [2] was ≤ 6 h.
